The compounds below were run on lung cancer cell line NCI-H82 (assay: Cell proliferation assay, NCI-H82 (CELL-TITER GLO)). Details: Homo sapiens, NCI-H82, 72 h, NCI-H82 cells, 72 h incubation, cell viability by CELL-TITER GLO, top concentration 1 μM; read-out: EC50, Inhibition of NCl-H82 Cell Proliferation.
Type: cell-based
Description: The activity of a compound was determined in a cell proliferation assay using the lung cancer cell line NCI-H82. Cells (1,000 cells per well) were cultured with RPMI1640 in a 384-well tissue culture plate. After incubated overnight, the compound was added at predetermined concentrations, starting with 1 μM and followed by a 3-fold serial dilution. After the cells were incubated for 72 h, cell viability was determined using a CELL-TITER GLO assay. The CELL-TITER GLO reagent (25 μL) was added to each well and the luminescence was measured by a multimode microplate reader after a brief period of shaking. EC50 values were determined for the compound. The results are summarized in Table 1, wherein A represents a value no greater than 200 nM, B represents a value greater than 200 nM but no greater than 1 μM, C represents a value greater than 1 μM but no greater than […], and D represents a value greater than 5 μM.

| SMILES | EC50 |
| --- | --- |
| C#Cc1nc(NC(=O)N[C@@H](C)c2ccc(-c3cccc4ncsc34)cc2)cs1 [Compound A25, (S)-1-(1-(4-(Benzo[d]thiazol-7-yl)phenyl)ethyl)-3-(2-ethynylthiazol-4-yl)urea] | ≤ 200 nM |
| C#Cc1nc(NC(=O)N[C@H](C)c2ccc(-c3cccc4ncsc34)cc2)cs1 [Compound A26, (R)-1-(1-(4-(Benzo[d]thiazol-7-yl)phenyl)ethyl)-3-(2-ethynylthiazol-4-yl)urea] | 200 to 1000 nM |
| C#Cc1nc(NC(=O)NCc2ccc(-c3ccccc3C#N)cc2)cs1 [Compound A29, 1-((2′-Cyano-[1,1′-biphenyl]-4-yl)methyl)-3-(2-ethynylthiazol-4-yl)urea] | ≤ 200 nM |
| C#Cc1nc(NC(=O)NCc2ccc(N3CCCC3)cc2)cs1 [Compound A30, 1-(2-Ethynylthiazol-4-yl)-3-(4-(pyrrolidin-1-yl)benzyl)urea] | ≤ 200 nM |
| C#Cc1nc(NC(=O)NCc2ccc(N3CCCC3C(N)=O)cc2)cs1 (stereo not drawn) [Compound A31, 1-(4-((3-(2-Ethynylthiazol-4-yl)ureido)methyl)phenyl)pyrrolidine-2-carboxamide] | 200 to 1000 nM |
| C#Cc1nc(NC(=O)NCc2ccc(N3CCC[C@H]3C#N)cc2)cs1 [Compound A32, (S)-1-(4-(2-Cyanopyrrolidin-1-yl)benzyl)-3-(2-ethynylthiazol-4-yl)urea] | ≤ 200 nM |
| C#Cc1nc(NC(=O)NCc2ccc(N3CCC[C@@H]3C#N)cc2)cs1 [Compound A33, (R)-1-(4-(2-Cyanopyrrolidin-1-yl)benzyl)-3-(2-ethynylthiazol-4-yl)urea] | ≤ 200 nM |
| C#Cc1nc(NC(=O)NCC(=O)N2CC(c3ccccc3C#N)C2)cs1 [Compound A34, 1-(2-(3-(2-Cyanophenyl)azetidin-1-yl)-2-oxoethyl)-3-(2-ethynylthiazol-4-yl)urea] | 200 to 1000 nM |
| C#Cc1nc(NC(=O)NCC(=O)N2CCC(c3ccccc3C#N)CC2)cs1 [Compound A35, 1-(2-(4-(2-Cyanophenyl)piperidin-1-yl)-2-oxoethyl)-3-(2-ethynylthiazol-4-yl)urea] | 200 to 1000 nM |
| C#Cc1nc(NC(=O)NCC(=O)N2CCN(c3ccccc3C#N)CC2)cs1 [Compound A36, 1-(2-(4-(2-Cyanophenyl)piperazin-1-yl)-2-oxoethyl)-3-(2-ethynylthiazol-4-yl)urea] | ≤ 200 nM |
| C#Cc1nc(NC(=O)NCC2CCN(c3ccccc3C#N)CC2)cs1 [Compound A37, 1-((1-(2-Cyanophenyl)piperidin-4-yl)methyl)-3-(2-ethynylthiazol-4-yl)urea] | ≤ 200 nM |
| C#Cc1nc(NC(=O)NCC23CC4CC(CC(C4)C2)C3)cs1 [Compound A38, 1-(Adamantan-1-ylmethyl)-3-(2-ethynylthiazol-4-yl)urea] | ≤ 200 nM |
| C#Cc1nc(NC(=O)N[C@@H](CO)c2ccc(-c3cccc4ncsc34)cc2)cs1 [Compound A40, (R)-1-(1-(4-(Benzo[d]thiazol-7-yl)phenyl)-2-hydroxyethyl)-3-(2-ethynylthiazol-4-yl)urea] | ≤ 200 nM |
| C#Cc1nc(NC(=O)N[C@H](CO)c2ccc(-c3cccc4ncsc34)cc2)cs1 [Compound A41, (S)-1-(1-(4-(Benzo[d]thiazol-7-yl)phenyl)-2-hydroxyethyl)-3-(2-ethynylthiazol-4-yl)urea] | ≤ 200 nM |
| C#Cc1nc(NC(=O)N[C@@H](CO)c2ccc(-c3cccc(N4CCCC4)c3)cc2)cs1 [Compound A42, (R)-1-(2-Ethynylthiazol-4-yl)-3-(2-hydroxy-1-(3′-(pyrrolidin-1-yl)-[1,1′-biphenyl]-4-yl)ethyl)urea] | ≤ 200 nM |
| C#Cc1nc(NC(=O)N[C@@H](C(=O)NC)c2ccc(-c3cccnc3C3(C#N)CC3)cc2)cs1 [Compound A43, (R)-2-(4-(2-(1-Cyanocyclopropyl)pyridin-3-yl)phenyl)-2-(3-(2-ethynylthiazol-4-yl)ureido)-N-methylacetamide] | ≤ 200 nM |
| C#Cc1nc(NC(=O)N[C@@H](CO)c2ccc(-c3ccccc3C#N)cc2)cs1 [Compound A44, (R)-1-(1-(2′-Cyano-[1,1′-biphenyl]-4-yl)-2-hydroxyethyl)-3-(2-ethynylthiazol-4-yl)urea] | ≤ 200 nM |
| C#Cc1nc(NC(=O)N[C@@H](CO)c2ccc(-c3ccccc3C#N)cn2)cs1 [Compound A45, (R)-1-(1-(5-(2-Cyanophenyl)pyridin-2-yl)-2-hydroxyethyl)-3-(2-ethynylthiazol-4-yl)urea] | ≤ 200 nM |

| SMILES | EC50 |
| --- | --- |
| C#Cc1nc(NC(=O)N[C@@H](COC(N)=O)c2ccc(-c3ccccc3C#N)cc2)cs1 [Compound A46, (R)-2-(2′-Cyano-[1,1′-biphenyl]-4-yl)-2-(3-(2-ethynylthiazol-4-yl)ureido)ethyl carbamate] | ≤ 200 nM |
| C#Cc1nc(NC(=O)N[C@@H](COC(N)=O)c2ccc(-c3ncccc3C#N)cc2)cs1 [Compound A47, (R)-2-(4-(3-Cyanopyridin-2-yl)phenyl)-2-(3-(2-ethynylthiazol-4-yl)ureido)ethyl carbamate] | ≤ 200 nM |
| C#Cc1nc(NC(=O)N[C@@H](COC(N)=O)c2ccc(-c3cc(C#N)ccn3)cc2)cs1 [Compound A48, (R)-2-(4-(4-Cyanopyridin-2-yl)phenyl)-2-(3-(2-ethynylthiazol-4-yl)ureido)ethyl carbamate] | ≤ 200 nM |
| C#Cc1nc(NC(=O)N[C@@H](COC(N)=O)c2ccc(-c3cccc4ccncc34)cc2)cs1 [Compound A49, (R)-2-(3-(2-Ethynylthiazol-4-yl)ureido)-2-(4-(isoquinolin-8-yl)phenyl)ethyl carbamate] | ≤ 200 nM |
| C#Cc1nc(NC(=O)N[C@@H](COC(N)=O)c2ccc(-c3cccc4cncnc34)cc2)cs1 [Compound A50, (R)-2-(3-(2-Ethynylthiazol-4-yl)ureido)-2-(4-(quinazolin-8-yl)phenyl)ethyl carbamate] | ≤ 200 nM |
| C#Cc1nc(NC(=O)N[C@@H](COC(N)=O)c2ccc(-c3cccc4nccnc34)cc2)cs1 [Compound A51, (R)-2-(3-(2-Ethynylthiazol-4-yl)ureido)-2-(4-(quinoxalin-5-yl)phenyl)ethyl carbamate] | ≤ 200 nM |
| C#Cc1nc(NC(=O)N[C@@H](CO)c2ccc(-c3c(C#N)ccc4cccnc34)cc2)cs1 [Compound A52, (R)-1-(1-(4-(7-Cyanoquinolin-8-yl)phenyl)-2-hydroxyethyl)-3-(2-ethynylthiazol-4-yl)urea] | ≤ 200 nM |
| C#Cc1nc(NC(=O)N[C@@H](CO)c2ccc(-c3cccc4c3c(C#N)nn4C)cc2)cs1 [Compound A53, (R)-1-(1-(4-(3-Cyano-1-methyl-1H-indazol-4-yl)phenyl)-2-hydroxyethyl)-3-(2-ethynylthiazol-4-yl)urea] | ≤ 200 nM |
| C#Cc1nc(NC(=O)N[C@@H](CO)c2ccc(-c3ccccc3C3(C#N)CC3)cc2)cs1 [Compound A54, (R)-1-(1-(2′-(1-Cyanocyclopropyl)-[1,1′-biphenyl]-4-yl)-2-hydroxyethyl)-3-(2-ethynylthiazol-4-yl)urea] | ≤ 200 nM |
| C#Cc1nc(NC(=O)N[C@@H](COC(N)=O)c2ccc(-c3ccccc3C3(C#N)CC3)cc2)cs1 [Compound A55, (R)-2-(2′-(1-Cyanocyclopropyl)-[1,1′-biphenyl]-4-yl)-2-(3-(2-ethynylthiazol-4-yl)ureido)ethyl carbamate] | ≤ 200 nM |
| C#Cc1nc(NC(=O)N[C@@H](COC(N)=O)c2ccc(-c3cccc(C4(C#N)CC4)n3)cc2)cs1 [Compound A56, (R)-2-(4-(6-(1-Cyanocyclopropyl)pyridin-2-yl)phenyl)-2-(3-(2-ethynylthiazol-4-yl)ureido)ethyl carbamate] | ≤ 200 nM |
| C#Cc1nc(NC(=O)N[C@@H](COC(N)=O)c2ccc(-c3cc(C4(C#N)CC4)ccn3)cc2)cs1 [Compound A57, (R)-2-(4-(4-(1-Cyanocyclopropyl)pyridin-2-yl)phenyl)-2-(3-(2-ethynylthiazol-4-yl)ureido)ethyl carbamate] | ≤ 200 nM |
| C#Cc1nc(NC(=O)N[C@@H](COC(N)=O)c2ccc(-c3ncccc3C3(C#N)CC3)cc2)cs1 [Compound A58, (R)-2-(4-(3-(1-Cyanocyclopropyl)pyridin-2-yl)phenyl)-2-(3-(2-ethynylthiazol-4-yl)ureido)ethyl carbamate] | ≤ 200 nM |
| C#Cc1nc(NC(=O)N[C@@H](CO)c2ccc(-c3ccccc3C3(C#N)CC3)nc2)cs1 [Compound A59, (R)-1-(1-(6-(2-(1-Cyanocyclopropyl)phenyl)pyridin-3-yl)-2-hydroxyethyl)-3-(2-ethynylthiazol-4-yl)urea] | ≤ 200 nM |
| C#Cc1nc(NC(=O)N[C@@H](COC(N)=O)c2ccc(-c3ccccc3C3(C#N)CC3)cn2)cs1 [Compound A60, (R)-2-(5-(2-(1-Cyanocyclopropyl)phenyl)pyridin-2-yl)-2-(3-(2-ethynylthiazol-4-yl)ureido)ethyl carbamate] | ≤ 200 nM |
| C#Cc1nc(NC(=O)N[C@H](COC(N)=O)c2ccc(-c3ccccc3C3(C#N)CC3)cn2)cs1 [Compound A61, (S)-2-(5-(2-(1-Cyanocyclopropyl)phenyl)pyridin-2-yl)-2-(3-(2-ethynylthiazol-4-yl)ureido)ethyl carbamate] | ≤ 200 nM |
| C#Cc1nc(NC(=O)N[C@@H](CO)c2ccc(-c3cccnc3C3(C#N)CC3)cc2)cs1 [Compound A62, (R)-1-(1-(4-(2-(1-Cyanocyclopropyl)pyridin-3-yl)phenyl)-2-hydroxyethyl)-3-(2-ethynylthiazol-4-yl)urea] | ≤ 200 nM |
| C#Cc1nc(NC(=O)N[C@@H](COC(N)=O)c2ccc(-c3cccnc3C3(C#N)CC3)cc2)cs1 [Compound A63, (R)-2-(4-(2-(1-Cyanocyclopropyl)pyridin-3-yl)phenyl)-2-(3-(2-ethynylthiazol-4-yl)ureido)ethyl carbamate] | ≤ 200 nM |

From patent publication US20240101546A1, “HETEROARYL-ACETYLENES, PHARMACEUTICAL COMPOSITIONS THEREOF, AND THEIR THERAPEUTIC APPLICATIONS” (Eubulus Biotherapeutics Inc., priority 2020, published 2024)
